Test results from patent US6011000A, “Compositions for the treatment of blood disorders” (priority 1995, dated 2000).

How the values were obtained:
[1] = tested on: K562; experiment: Growth of human erythroid cell line K562; assay type: cell-based; conditions: for growth of K562: 0.5 mM, over 3 days
Description: Such activities might limit their utility for treatment of anemias such as occur in thalassemia, but alternatively would be useful for anticancer effects. […]
(§1) Cell viability analyses were performed using fluorescent staining to detect living cells. Cells were in log phase of growth in 6-well dishes when used in proliferation assays. For enumeration of living cells, wells were washed once with medium to remove nonadherent or dead cells. Remaining live cells were labeled with Calcein-AM for 20 minutes at 37° C. and washed once. Fluorescence intensity of adherent live cells was read on a CytoFluor 2300 Fluorescence Plate Scanner (Millipore; Bedford, Mass.) at excitation and emission wavelengths of 485 and 530 nm, respectively. The fluorescence intensity of a well was proportional to the number of living cells in the well. Background fluorescence was measured separately for each plate and subtracted from all readings. Each experiment was performed in triplicate or quadruplicate. The standard deviation (SD) of repetitive readings was less than 30% of the mean.
At higher concentrations, still easily achievable in vivo, arginine butyrate (0.5 mM) and dihydrocinnamic acid (greater than 0.5 mM) inhibited growth of this tumor cell line by approximately 50%. Therefore, these compounds are also useful as anti-tumor agents.

[2] = tested on: human erythroid cells; experiment: DNA fragmentation by flow cytometry (degradation of DNA); assay type: cell-based
Description: Such activities might limit their utility for treatment of anemias such as occur in thalassemia, but alternatively would be useful for anticancer effects. To determine cell viability, human erythroid cells were cultured in the presence and absence of these compounds for 4 days and the amount of DNA fragmentation which occurred was measured.
Flow cytometric determination of DNA profiles and DNA fragmentation were determined. Cytometric analysis was performed with a FACScan (Becton Dickenson Instruments; Columbia, Md.). The data analysis and display were performed using the Cell-Fit software program. Approximately 0.5×10^6 cells were washed twice with PBS and resuspended in 1 ml of 1% sodium citrate, 0.1% Triton X-100 and 50 μg of propidium iodide/ml. Resulting permeabilized cells were kept in the dark at 4° C. overnight before DNA profile or DNA fragmentation analysis (Table 4).

[3] = tested on: fetal globin mRNA (human erythroleukemia cells); experiment: Fetal globin mRNA in erythroleukemia cells (primer extension); assay type: cell-based
Description: Compounds were tested for increased expression of the human globin genes in human erythroid cells. In addition, as the cell line being tested is a tumor cell line, the assay determines if differentiation, a growth inhibitory effect on cancer cells, is induced by the compounds tested. Human erythroleukemia cells were cultured in RPMI media with 10% fetal calf serum alone or with treatment with various compounds for 4 days. Globin MRNA was quantitated by primer extension analysis. Fetal globin mRNA was compared to the amount of fetal globin mRNA produced in untreated cells during the same culture period. The quantitation was expressed as a percent of alpha globin MRNA which was constant. Results are expressed proportional to α-globin mRNA (Table 3).

[4] = tested on: fetal globin (gamma globin); experiment: Fetal globin expression in erythroid progenitor cells from cord blood; assay type: cell-based, human
Description: Compositions were tested for activity in inducing fetal globin expression and protein production in erythroid progenitor cells cultured from human cord blood and analyzed as described by S. P. Perrine et al. (Blood 74: 454-60, 1989). Briefly, mononuclear cells were cultured in IMDM with 30% fetal calf serum and 2 units erythropoietin per ml to induce erythroid differentiation. Colonies were harvested on day 12-13, incubated with radio-labelled (^3 H) leucine, and further incubated in leucine-free media, still in the presence of compounds, overnight. Globin composition in the erythroid cells was analyzed by laser densitometry of electrophoretically separated globin chains stained with Coomassie blue, and by autoradiography. Treated cells were incubated for 12-13 days (Table 2, Experiments A and B) or overnight (Table 2, Experiment C) in the presence of the indicated compounds and compared to untreated control cells cultured from the same human subject.

[5] = tested on: K562 cells; experiment: Dose response of cell growth, trypan blue exclusion (FIG. 3); assay type: cell-based, human; conditions: up to 2.0 mM, day 4
Description: FIG. 3 Cell viability as determined by the comparative numbers of total and viable K562 cells in the presence of increasing concentrations of (A) phenoxyacetic acid, (B) dihydrocinnamic acid, (C) butyric acid ethyl ester, (D) arginine butyrate, and (E) isobutyramide.
Dose response curves at dosages of up to 2.0 mM were also determined for phenoxyacetic acid (PAA; FIG. 3A), dihydrocinnamic acid (DHC; FIG. 3B), butyric acid ethyl ester (BAEE; FIG. 3C), arginine butyrate (AB; FIG. 3D) and isobutyramide (IBT; FIG. 3E). Cells were counted on day 4 of treatment and viable cells identified by trypan blue exclusion.

[6] = tested on: erythroid cells (peripheral blood); experiment: Erythroid cell viability by fluorescent staining (Calcein-AM), FIG. 2; assay type: cell-based, human; conditions: 0.5 mM, vs untreated controls
Description: FIG. 2 Peripheral blood cell viability after incubation with arginine butyrate, dihydrocinnamic acid, phenoxyacetic acid and butyric acid ethyl ester.
as §1, with “Compositions were tested for the ability to directly stimulate erythroid cell growth. Cell growth stimulation is a useful property for an agent to be used to treat anemias and distinguishes such agents from the cytotoxic drugs currently being tested for treatment of hemoglobinopathies. Cell viability” for “Cell viability”, “labeled with 2 μM 2',7'-bis-(carboxyethyl)-5-(and 6)-carboxy-fluorescein acetoxy-methyl ester (Calcein-AM) (Molecular Probes; Eugene, Oreg.) for 20” for “labeled with Calcein-AM for 20”, “intensity of live cells” for “intensity of adherent live cells”, “the mean. Results are depicted in FIG. 2.” for “the mean.”

[7] = tested on: hemoglobin polymerization; conditions: artificially deoxygenated blood; cited from earlier work
[8] = tested on: BFU-e (burst forming unit-erythroid); experiment: BFU-e stimulation (colony growth) in cultured peripheral blood mononuclear cells; assay type: cell-based; conditions: Homo sapiens, PBMC; 0.1 mM; read-out: more BFU-e colonies from the same number of mononuclear cells than control cultures
Description: Peripheral blood was collected from normal volunteers and patients with anemia due to sickle cell disease or thalassemia Mononuclear cells were isolated by Ficoll-Hypaque (Pharmacia Biotech; Piscataway, N.J.) centrifugation and cultured in Iscove's Modified Dulbecco's Media (IMDM; GIBCO/BRL; Grand Island, N.Y.) supplemented with 10% fetal calf serum, 300 μg/ml glutamine, 3 units/ml IL 3 (Amgen; Thousand Oaks, Calif.), and 2 units/ml erythropoietin (Terry Fox Labs; Vancouver, B.C.). Chemical compounds were obtained from Sigma Chemical (St. Louis, Mo.) or Aldrich Chemical (Milwaukee, Wis.), unless otherwise indicated, and formulated into pharmaceutical compositions by dissolving in aqueous solutions of media or sterile water pH adjusted to about 7.4. Solutions were sterilized by passage at least once through 0.22 micron Nalgene filters and added to cell cultures at final concentrations that are pharmaceutically achievable in vivo (typically between about 0.1 mM to 2.0 MM). Cells were incubated with compounds for between 13-14 days at 37° C. in humidified 5% CO2, and fed and passed, as necessary. Colony growth, proportion of fetal globin-expressing cells and amounts of fetal globin production were assayed. Results are presented in Table 1 as BFU-e stimulation (colony growth). […]

[9] = tested on: anemic baboon; experiment: In vivo reticulocyte proliferation, globin expression and blood counts in anemic (phlebotomized) baboons; conditions: 4 days
Description: Experiments were performed to determine if administration of the chemical compositions could induce fetal globin gene expression in an in vivo model similar to humans (S. P. Perrine et al., Brit. J. Haematol. 88:555-61, 1994). Briefly, chemicals were prepared as sterile pharmaceutical solutions in pH adjusted sterile water. A variety of chemical compositions were administered sequentially to some baboons. After administration of one compound, a wash-out period with no compound administration was maintained until reticulocytes returned to base line prior to administration of the next compound. This was done, at least partly, to compare the magnitude of response which occurred within the same individual animal to different compounds.
Briefly, juvenile female baboons (2 years old) were catheterized with arterial and venous catheters and phlebotomized gradually every day to maintain a moderate anemia of 7.0 to 7.5 grams hemoglobin/dl. Fetal reticulocytes, the newly produced red blood cells containing fetal globin, were assayed using a monoclonal antibody against fetal globin (HbF) as described by G. Dover et al. (Blood 67:735-38, 1986). Briefly, blood was stained with two antibodies, one specific for reticulocytes and another against fetal globin protein. The amount of antibody bound cells was determined by FACS analysis. Globin chain synthesis was assayed as described by J. B. Clegg et al. (J. Mol. Biol. 19:91-108, 1966). Briefly, reticulocytes were radio-labeled with ^3 H-leucine which was incorporated in equal proportions into actively synthesized globin chains. After incubation in leucine-free media, cells were washed, and globin proteins were separated and purified by column chromatography. Radioactivity incorporated into each peak is compared and the ratios of gamma to gamma plus beta globin calculated. Each animal served as its own control with baseline monitoring assays performed for 4-6 weeks before any drug was administered. Phlebotomy was continued daily, so that peripheral HbF levels in the animals were not considered to be accurate over the short treatment time-frames and were not monitored. Safety monitoring was performed by frequent physical examinations, quantitation of food eaten, activity and frequent chemistry and hematology monitoring. Complete blood counts were assayed before, during and after treatment. Results presented were not adjusted to account for the daily phlebotomy.

[10] = Exp. A, 0.1 mM, 12-13 days, untreated 76.0%
[11] = Exp. C, 0.1 mM, overnight, untreated 52.0%

CCCC(=O)OCC [BAEE, butyric acid ethyl ester]
growth of K562 [1]: either did not inhibit, or slightly enhanced growth
proportion of degraded DNA ([2]; 1.0 mM to 2.0 mM, untreated 26%): 13.8%
Degraded DNA ([2]; 2.0 mM, 4 days, control 26%, 22%): 13.8%
DNA fragmentation / cell viability / DNA integrity ([2]; DNA fragmentation assays): reduce DNA fragmentation
induction of fetal globin mRNA [3]: significantly increased the induction of fetal globin MRNA
stimulation of fetal globin expression relative to AB ([3]; 1.0 mM): over two times greater than even AB alone
Gamma/Alpha ([3]; 1.0 mM, 4 days, untreated 0.46): 0.90
activation at 1000 µM ([3]; Homo sapiens, 96 h, 1.0 mM, 4 days, read-out: Gamma Globin mRNA (increase)): 44%
Gamma/(Gamma + Beta) [4, 10]: 89.5%
Gamma/(Gamma + Beta) ([4]; Exp. B, 0.2 mM, 12-13 days, untreated 25.4%, 27.5%): 74.0%
Gamma/(Gamma + Beta) [4, 11]: 64.6%
proliferation [5]: did not significantly inhibit proliferation
erythroid cell growth and proliferation [6]: either had no effect or stimulated erythroid cell growth and proliferation

CC(C)(Oc1ccc(Cl)cc1)C(=O)O [clofibric acid]
inhibition of polymerization [7]: inhibit polymerization

O=C(O)COc1ccc(Cl)cc1 [p-chloro phenoxy acetic acid]
inhibition of polymerization [7]: inhibit polymerization

O=C(O)CCc1ccccc1 [DHC, Dihydrocinnamic acid]
activation at 100 µM [8]: 124%
growth of K562 [1]: either did not inhibit, or slightly enhanced growth
growth inhibition of K562 ([1]; greater than 0.5 mM): approximately 50%
Gamma/(Gamma + Beta) [4, 10]: 88.0%
Gamma/(Gamma + Beta) [4, 11]: 76.0%
Gamma/(Gamma + Beta) ([4]; Exp. C, 0.2 mM, overnight, untreated 52.0%): 71.9%
Gamma/(Gamma + Beta) ([4]; Exp. C, 0.5 mM, overnight, untreated 52.0%): 71.3%
red blood cell count ([9]; 1,000 mg/kg/day i.v., from 2.3): 2.73 10^6 cells/μl
Total hemoglobin ([9]; 1,000 mg/kg/day i.v., from 6.6): 7.3 grams/dl
packed red blood cell volume ([9]; 1,000 mg/kg/day i.v., from 20.9%): 22.7 % of the blood
Fetal reticulocytes ([9]; 300 to 500 mg/kg per day infused, from 10%): 17%
erythroid cell growth and proliferation [6]: either had no effect or stimulated erythroid cell growth and proliferation
